The values below come from ChEMBL document CHEMBL1141994, “Identification of an agonist ligand for estrogen-related receptors ERRbeta/gamma” (Bioorg Med Chem Lett, 2005).

Common to all, as to assay type: functional
Experiment [1] concerns the target T1, Steroid hormone receptor ERR1 (Homo sapiens) (UniProt P11474).
T1 sequence (whole entry): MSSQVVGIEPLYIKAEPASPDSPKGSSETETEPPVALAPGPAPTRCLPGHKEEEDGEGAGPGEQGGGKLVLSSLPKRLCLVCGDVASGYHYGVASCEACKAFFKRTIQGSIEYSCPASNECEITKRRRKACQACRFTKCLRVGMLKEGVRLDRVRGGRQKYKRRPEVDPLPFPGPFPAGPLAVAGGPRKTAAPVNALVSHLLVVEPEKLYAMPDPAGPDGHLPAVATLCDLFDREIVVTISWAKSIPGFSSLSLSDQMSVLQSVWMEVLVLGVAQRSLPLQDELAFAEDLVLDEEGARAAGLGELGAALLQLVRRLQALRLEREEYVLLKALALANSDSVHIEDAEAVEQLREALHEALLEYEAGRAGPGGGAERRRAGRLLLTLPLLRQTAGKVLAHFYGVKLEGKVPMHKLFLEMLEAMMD
Nature of the experiment: Fold activation of estrogen-related receptor alpha at 100 nM in cell-based reporter gene assay. For orientation: In a reporter assay the amount or activity of a reporter protein is the signal.

Experiment [2] has as its target T2, Estrogen-related receptor gamma (Homo sapiens) (UniProt P62508).
T2 sequence (whole entry): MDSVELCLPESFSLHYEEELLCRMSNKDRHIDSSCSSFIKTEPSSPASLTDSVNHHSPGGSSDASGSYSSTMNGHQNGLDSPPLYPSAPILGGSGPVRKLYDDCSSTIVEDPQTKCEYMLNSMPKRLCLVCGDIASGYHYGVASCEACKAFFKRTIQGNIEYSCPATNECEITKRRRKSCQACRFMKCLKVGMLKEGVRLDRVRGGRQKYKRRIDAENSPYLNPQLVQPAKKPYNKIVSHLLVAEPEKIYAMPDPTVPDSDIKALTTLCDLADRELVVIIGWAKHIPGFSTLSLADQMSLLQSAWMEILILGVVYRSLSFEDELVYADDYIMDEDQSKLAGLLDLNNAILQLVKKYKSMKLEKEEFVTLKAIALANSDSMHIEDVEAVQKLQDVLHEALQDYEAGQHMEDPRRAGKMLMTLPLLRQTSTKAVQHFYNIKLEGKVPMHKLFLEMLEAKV
Nature of the experiment: Fold activation of estrogen-related receptor gamma at 100 nM in cell-based reporter gene assay.

The target of experiment [3] is T3, Steroid hormone receptor ERR2 (Homo sapiens) (UniProt O95718).
T3 sequence (whole entry): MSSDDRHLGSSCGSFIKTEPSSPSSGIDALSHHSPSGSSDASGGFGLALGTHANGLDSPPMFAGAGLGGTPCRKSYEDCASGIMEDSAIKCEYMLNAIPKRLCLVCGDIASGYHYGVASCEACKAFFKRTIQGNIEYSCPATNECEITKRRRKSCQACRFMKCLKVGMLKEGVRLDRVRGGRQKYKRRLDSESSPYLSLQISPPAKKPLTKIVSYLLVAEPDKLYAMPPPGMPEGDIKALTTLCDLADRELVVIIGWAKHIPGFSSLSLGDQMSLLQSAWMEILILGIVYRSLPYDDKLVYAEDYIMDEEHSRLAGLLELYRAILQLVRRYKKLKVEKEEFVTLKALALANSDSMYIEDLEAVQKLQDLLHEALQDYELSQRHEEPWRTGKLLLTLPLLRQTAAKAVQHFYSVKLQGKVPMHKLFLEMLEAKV
Briefly: Fold activation of estrogen-related receptor beta at 100 nM in cell-based reporter gene assay.

In the case of `C[C@]12CC[C@@H]3c4ccc(O)cc4CC[C@H]3[C@@H]1CC[C@@H]2O`, the Activity is 1.1 in experiment [1], 0.8 in experiment [2] and 1 in experiment [3].
